The values below come from PubChem BioAssay AID248 (DTP/NCI, 2004).

The experiment deals with L1210 leukemia ip in BDF1 mice, survival T/C. Description: NCI In Vivo Anticancer Drug Screen. Data for tumor model L1210 Leukemia (intraperitoneal) in B6D2F1 (BDF1) mice. The following applies: endpoint: mean survival time, higher = longer survival. The method in brief:
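Ratio derived from survival: compound-dosed mice over vehicle-dosed mice, all bearing a transplantable tumor.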

The mark [1] stands for this setting: dose: 200.0 mg/kg/injection, schedule: Q01DX Z (ip), vehicle: carboxymethylcellulose (CMC).
The mark [2] stands for this setting: dose: 300.0 mg/kg/injection, schedule: Q01DX Z (ip), vehicle: carboxymethylcellulose (CMC).

Molecules are shown by their SMILES. Values joined by “and” are separate entries in the source; they are usually repeats but may differ in a detail not shown here. Identical values can stand only once. Inconclusive results and toxic doses are left out.

With `CCN(CC)CC(=O)NCC(C)(CCN1CCOCC1)c1cccc2ccccc12` (stereo not drawn), the T/C (dose: 100.0 mg/kg/injection, schedule: Q01DX009 (ip), vehicle: saline) was 105 % of control; the T/C (dose: 200.0 mg/kg/injection, schedule: Q01DX009 (ip), vehicle: saline) was 105 % of control; the T/C (dose: 400.0 mg/kg/injection, schedule: Q01DX009 (ip), vehicle: saline) was 110 % of control.
Consider `COc1ccc(C(=O)OCc2ccccc2CN2CCCCC2C)cc1` (stereo not drawn), for which the T/C was 94 % of control (dose: 100.0 mg/kg/injection, schedule: Q04DX002 (ip), vehicle: saline); 108 % of control (dose: 200.0 mg/kg/injection, schedule: Q04DX002 (ip), vehicle: saline); 86 % of control (dose: 400.0 mg/kg/injection, schedule: Q04DX002 (ip), vehicle: saline).
As for `C[C@@H]1CN(C(=O)CCOS(C)(=O)=O)[C@@H](C)CN1C(=O)CCOS(C)(=O)=O`, the T/C is 112 % of control (dose: 2.5 mg/kg/injection, schedule: Q01DX Z (ip), vehicle: carboxymethylcellulose (CMC)); 102 % of control (dose: 3.7 mg/kg/injection, schedule: Q01DX Z (ip), vehicle: carboxymethylcellulose (CMC)); 115 % of control (dose: 5.6 mg/kg/injection, schedule: Q01DX Z (ip), vehicle: carboxymethylcellulose (CMC)); 103 % of control (dose: 8.4 mg/kg/injection, schedule: Q01DX Z (ip), vehicle: carboxymethylcellulose (CMC)); 116 % of control (dose: 29.5 mg/kg/injection, schedule: Q01DX Z (ip), vehicle: carboxymethylcellulose (CMC)); 166 % of control (dose: 60.0 mg/kg/injection, schedule: Q01DX Z (ip), vehicle: carboxymethylcellulose (CMC)). Further, the T/C was 117 % of control (dose: 198.0 mg/kg/injection, schedule: Q01DX Z (ip), vehicle: carboxymethylcellulose (CMC)); 119 % of control under setting [1]; 91 % of control (dose: 201.0 mg/kg/injection, schedule: Q01DX Z (ip), vehicle: carboxymethylcellulose (CMC)); 121 % of control and 90 % of control under setting [2]; 95 % of control (dose: 302.0 mg/kg/injection, schedule: Q01DX Z (ip), vehicle: carboxymethylcellulose (CMC)).
For the compound `CC1(O)C(=O)C=Cc2ccccc21` (stereo not drawn), the T/C by setting is: (dose: 100.0 mg/kg/injection, schedule: Q01DX001 (ip), vehicle: Klucel (hydroxypropylcellulose) (HPC)) 93 % of control; (dose: 200.0 mg/kg/injection, schedule: Q01DX001 (ip), vehicle: Klucel (hydroxypropylcellulose) (HPC)) 102 % of control; (dose: 400.0 mg/kg/injection, schedule: Q01DX001 (ip), vehicle: Klucel (hydroxypropylcellulose) (HPC)) 96 % of control.
For `O=C1CC(=O)NC(=O)N1`, the T/C reads like this: (dose: 100.0 mg/kg/injection, schedule: Q04DX003 (ip), vehicle: saline with Tween-80) 91 % of control; (dose: 200.0 mg/kg/injection, schedule: Q04DX003 (ip), vehicle: saline with Tween-80) 93 % of control; (dose: 400.0 mg/kg/injection, schedule: Q04DX003 (ip), vehicle: saline with Tween-80) 91 % of control.
For the compound `OC(c1ccccc1)(c1ccccc1)C1C(=C(c2ccccc2)c2ccccc2)C1c1ccccc1` (stereo not drawn), the T/C by setting is: (dose: 100.0 mg/kg/injection, schedule: Q01DX001 (ip), vehicle: steriod suspending solution) 104 % of control; (dose: 200.0 mg/kg/injection, schedule: Q01DX001 (ip), vehicle: steriod suspending solution) 93 % of control; (dose: 400.0 mg/kg/injection, schedule: Q01DX001 (ip), vehicle: steriod suspending solution) 95 % of control.
Take `Cc1c2c(cc3c1[nH]c1ccccc13)C(C)N(C)CC2` (stereo not drawn): the T/C runs as follows: (dose: 14.6 mg/kg/injection, schedule: Q01DX Z (ip), vehicle: saline) 110 % of control; (dose: 22.0 mg/kg/injection, schedule: Q01DX Z (ip), vehicle: saline) 111 % of control; (dose: 32.5 mg/kg/injection, schedule: Q01DX015 (ip), vehicle: carboxymethylcellulose (CMC)) 107 % of control; (dose: 33.0 mg/kg/injection, schedule: Q01DX Z (ip), vehicle: saline) 113 % of control; (dose: 50.0 mg/kg/injection, schedule: Q01DX001 (ip), vehicle: carboxymethylcellulose (CMC)) 109 % of control; (dose: 50.0 mg/kg/injection, schedule: Q01DX Z (ip), vehicle: saline) 119 % of control. In addition, the T/C is, setting by setting: (dose: 75.0 mg/kg/injection, schedule: Q01DX015 (ip), vehicle: carboxymethylcellulose (CMC)) 108 % of control; (dose: 100.0 mg/kg/injection, schedule: Q01DX001 (ip), vehicle: carboxymethylcellulose (CMC)) 109 % of control; (dose: 150.0 mg/kg/injection, schedule: Q01DX015 (ip), vehicle: carboxymethylcellulose (CMC)) 118 % of control; (dose: 150.0 mg/kg/injection, schedule: Q01DX Z (ip), vehicle: saline) 166 % of control; (dose: 200.0 mg/kg/injection, schedule: Q01DX001 (ip), vehicle: carboxymethylcellulose (CMC)) 106 % of control; under setting [1], 100 % of control. Further, the T/C was 118 % of control (dose: 300.0 mg/kg/injection, schedule: Q01DX015 (ip), vehicle: carboxymethylcellulose (CMC)); 107 % of control under setting [2]; 98 % of control (dose: 400.0 mg/kg/injection, schedule: Q01DX001 (ip), vehicle: carboxymethylcellulose (CMC)); 110 % of control (dose: 750.0 mg/kg/injection, schedule: Q01DX001 (ip), vehicle: carboxymethylcellulose (CMC)); 114 % of control (dose: 1500.0 mg/kg/injection, schedule: Q01DX001 (ip), vehicle: carboxymethylcellulose (CMC)).
Take `C[Se](=O)O.[Pb]`: the T/C (dose: 3.13 mg/kg/injection, schedule: Q01DX001 (ip), vehicle: saline with Tween-80) was 98 % of control; the T/C (dose: 6.25 mg/kg/injection, schedule: Q01DX001 (ip), vehicle: saline with Tween-80) is 98 % of control; the T/C (dose: 12.5 mg/kg/injection, schedule: Q01DX001 (ip), vehicle: saline with Tween-80) was 88 % of control.
Take `O=C(O)c1cc(F)ccc1F`: the T/C reads like this: (dose: 100.0 mg/kg/injection, schedule: Q04DX002 (ip), vehicle: Klucel (hydroxypropylcellulose) (HPC)) 97 % of control; (dose: 200.0 mg/kg/injection, schedule: Q04DX002 (ip), vehicle: Klucel (hydroxypropylcellulose) (HPC)) 108 % of control.
As to `COc1ccc(NC(=O)N(CCCl)N=O)cc1OC`, the T/C is, setting by setting: (dose: 0.5 mg/kg/injection, schedule: Q01DX009 (ip), vehicle: Klucel (hydroxypropylcellulose) (HPC)) 115 % of control; (dose: 1.0 mg/kg/injection, schedule: Q01DX009 (ip), vehicle: Klucel (hydroxypropylcellulose) (HPC)) 123 % of control; (dose: 1.2 mg/kg/injection, schedule: Q01DX009 (ip), vehicle: Klucel (hydroxypropylcellulose) (HPC)) 115 % of control; (dose: 1.8 mg/kg/injection, schedule: Q01DX009 (ip), vehicle: Klucel (hydroxypropylcellulose) (HPC)) 113 % of control; (dose: 2.5 mg/kg/injection, schedule: Q01DX001 (ip), vehicle: carboxymethylcellulose (CMC)) 118 % of control; (dose: 4.0 mg/kg/injection, schedule: Q01DX009 (ip), vehicle: Klucel (hydroxypropylcellulose) (HPC)) 151 % of control and 152 % of control (2×). The T/C runs as follows: (dose: 5.0 mg/kg/injection, schedule: Q01DX001 (ip), vehicle: carboxymethylcellulose (CMC)) 118 % of control; (dose: 6.0 mg/kg/injection, schedule: Q01DX009 (ip), vehicle: Klucel (hydroxypropylcellulose) (HPC)) 165 % of control; (dose: 6.6 mg/kg/injection, schedule: Q01DX009 (ip), vehicle: carboxymethylcellulose (CMC)) 206 % of control; (dose: 9.0 mg/kg/injection, schedule: Q01DX009 (ip), vehicle: Klucel (hydroxypropylcellulose) (HPC)) 220 % of control; (dose: 10.0 mg/kg/injection, schedule: Q01DX009 (ip), vehicle: carboxymethylcellulose (CMC)) 123 % of control; (dose: 13.0 mg/kg/injection, schedule: Q01DX009 (ip), vehicle: Klucel (hydroxypropylcellulose) (HPC)) 167 % of control and 190 % of control. Further, the T/C (dose: 15.0 mg/kg/injection, schedule: Q01DX001 (ip), vehicle: carboxymethylcellulose (CMC)) is 168 % of control; the T/C (dose: 15.0 mg/kg/injection, schedule: Q01DX009 (ip), vehicle: carboxymethylcellulose (CMC)) was 106 % of control; the T/C (dose: 20.0 mg/kg/injection, schedule: Q01DX001 (ip), vehicle: other) is 227 % of control; the T/C (dose: 20.0 mg/kg/injection, schedule: Q01DX009 (ip), vehicle: Klucel (hydroxypropylcellulose) (HPC)) was 92 % of control; the T/C (dose: 30.0 mg/kg/injection, schedule: Q01DX001 (ip), vehicle: carboxymethylcellulose (CMC)) was 247 % of control; the T/C (dose: 30.0 mg/kg/injection, schedule: Q01DX001 (ip), vehicle: other) was 206 % of control. Further, the T/C runs as follows: (dose: 45.0 mg/kg/injection, schedule: Q01DX001 (ip), vehicle: other) 242 % of control; (dose: 60.0 mg/kg/injection, schedule: Q01DX001 (ip), vehicle: carboxymethylcellulose (CMC)) 193 % of control.
